# Measured values from ChEMBL document CHEMBL1255515, “Design of a series of bicyclic HIV-1 integrase inhibitors. Part 2: azoles: effective metal chelators” (Bioorg Med Chem Lett, 2010).
# Key:
# [1] = target: Human immunodeficiency virus type 1 integrase (Human immunodeficiency virus 1, UniProt Q7ZJM1); test: Inhibition of HIV-1 integrase-mediated 3'-processing and strand transfer activity
# [2] = test system: Human immunodeficiency virus 1; test: Antiviral activity against HIV1 by cell based luciferase assay; assay type: functional, organism-based
# [3] = test system: Human immunodeficiency virus 1; test: Antiviral activity against HIV1 assessed as inhibition of viral replication after 6 days by cell based p24 antigen assay; conditions: Human immunodeficiency virus 1, 144 h
# [4] = test system: Human immunodeficiency virus 1; test: Antiviral activity against HIV1 by cell based luciferase assay in presence of 50% serum; assay type: functional
# Sequence of Human immunodeficiency virus type 1 integrase (Q7ZJM1 whole entry): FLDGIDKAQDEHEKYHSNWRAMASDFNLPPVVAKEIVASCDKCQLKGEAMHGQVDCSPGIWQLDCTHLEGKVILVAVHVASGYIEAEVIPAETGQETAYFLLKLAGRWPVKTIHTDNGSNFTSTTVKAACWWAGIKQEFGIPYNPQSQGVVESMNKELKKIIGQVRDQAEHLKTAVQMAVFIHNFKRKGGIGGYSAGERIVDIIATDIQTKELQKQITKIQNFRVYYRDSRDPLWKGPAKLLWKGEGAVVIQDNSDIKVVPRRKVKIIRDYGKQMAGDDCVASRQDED
Structure (SMILES),IC50 [1],EC50 [2],EC50 [3],fold change (FC) [4]
O=c1c(O)c(-c2nnc(Cc3ccc(F)cc3)[nH]2)nc2ccc(N3CCOCC3)cn12,–,198 nM,–,–
O=c1c(O)c(-c2nnc(Cc3ccc(F)cc3)s2)nc2ccc(N3CCOCC3)cn12,225 nM,–,14 nM,–
O=C(NCc1ccc(F)cc1)c1nc2ccc(N3CCOCC3)cn2c(=O)c1O,775 nM,215 nM,28 nM,–
O=c1c(O)c(-c2nnc(Cc3ccc(F)cc3)o2)nc2ccc(N3CCOCC3)cn12,310 nM,–,215 nM,–
O=c1c(O)c(-c2ncc(Cc3ccc(F)cc3)[nH]2)nc2c(N3CCCS3(=O)=O)cc(N3CCOCC3)cn12,95 nM,> 1000 nM,–,–
O=c1c(O)c(-c2ncc(Cc3ccc(F)cc3)o2)nc2c(N3CCCS3(=O)=O)cc(N3CCOCC3)cn12,–,> 1000 nM,–,–
O=c1c(O)c(-c2noc(Cc3ccc(F)cc3)n2)nc2ccc(N3CCOCC3)cn12,450 nM,–,99 nM,–
O=c1c(O)c(-c2nc(Cc3ccc(F)cc3)no2)nc2ccc(N3CCOCC3)cn12,> 10000 nM,> 1000 nM,–,–
CCN(C(=O)C(=O)N(C)C)c1cc(N2CCOCC2)cn2c(=O)c(O)c(-c3ncc(Cc4ccc(F)cc4)[nH]3)nc12,–,86 nM,–,–

# Further molecules by falling EC50 [2], results first:
IC50 [1],EC50 [2],EC50 [3],Structure (SMILES),fold change (FC) [4]
35 nM,64 nM,–,O=C1OCCN1c1cc(N2CCOCC2)cn2c(=O)c(O)c(-c3ncc(Cc4ccc(F)cc4)[nH]3)nc12,–
45 nM,62 nM,–,O=c1c(O)c(-c2ncc(Cc3ccc(F)cc3)[nH]2)nc2ccc(N3CCOCC3)cn12,–
47 nM,39 nM,–,O=C1CCCN1c1cc(N2CCOCC2)cn2c(=O)c(O)c(-c3ncc(Cc4ccc(F)cc4)[nH]3)nc12,–
20 nM,32 nM,16.5 nM,O=c1c(O)c(-c2ncc(Cc3ccc(F)cc3)s2)nc2ccc(N3CCOCC3)cn12,–
–,29 nM,–,O=c1c(O)c(-c2ncc(Cc3ccc(F)cc3)[nH]2)nc2c(Br)cc(N3CCOCC3)cn12,–
59 nM,21.5 nM,6 nM,O=c1c(O)c(-c2ncc(Cc3ccc(F)cc3)o2)nc2ccc(N3CCOCC3)cn12,–
42 nM,14 nM,4.35 nM,O=c1c(O)c(-c2ncc(Cc3ccc(F)cc3)s2)nc2c(Br)cc(N3CCOCC3)cn12,–
36 nM,11.5 nM,–,O=c1c(O)c(-c2ncc(Cc3ccc(F)cc3)s2)nc2c(N3CCCS3(=O)=O)cc(N3CCOCC3)cn12,–
70 nM,11 nM,–,CN1CCN(c2cc(N3CCOCC3)cn3c(=O)c(O)c(-c4ncc(Cc5ccc(F)cc5)[nH]4)nc23)S1(=O)=O,–
170 nM,9 nM,2.6 nM,O=c1c(O)c(-c2ncc(Cc3ccc(F)cc3)o2)nc2c(I)cc(N3CCOCC3)cn12,–
–,6 nM,–,CC(C)N1CCN(c2cc(N3CCOCC3)cn3c(=O)c(O)c(-c4ncc(Cc5ccc(F)cc5)[nH]4)nc23)C1=O,<3
